Measurements reported in ChEMBL document CHEMBL5126551, “Spiral molecules with antimalarial activities: A review” (Eur J Med Chem, 2022).
Converted amounts (≈) assume the structure as drawn.

Experiments:
[1] = system: Plasmodium falciparum; assay: Antimalarial activity against chloroquine-sensitive Plasmodium falciparum 3D7 assessed as reduction in parasite growth incubated for 72 hrs by SYBR green I-based DNA quantification assay; assay type: functional, organism-based; conditions: 3D7, 72 h
[2] = system: Plasmodium falciparum; assay: Antimalarial activity against Plasmodium falciparum K1 infected in human red blood cells assessed as inhibition of parasite growth incubated for 48 hrs by Giema staining based assay; assay type: functional, organism-based, Red blood cell; conditions: K1, Erythrocyte
[3] = system: Plasmodium falciparum; assay: Antimalarial activity against chloroquine, amodiaquine, quinine and artesunate-resistant Plasmodium falciparum NF-54 infected in human erythrocyte assessed as inhibition of parasite growth incubated for 48 hrs by [3H]-hypoxanthine incorporation assay based liquid scintillation counter method; assay type: functional, organism-based; conditions: NF-54, Erythrocyte
[4] = system: Plasmodium falciparum; assay: Antimalarial activity against chloroquine-resistant Plasmodium falciparum FCB-2 infected in human erythrocyte assessed as inhibition of parasite growth incubated for 48 hrs by [3H]-hypoxanthine incorporation assay based liquid scintillation counter method; assay type: functional, organism-based; conditions: FCB-2, Erythrocyte
[5] = system: Plasmodium falciparum; assay: Antimalarial activity against chloroquine-sensitive Plasmodium falciparum 3D7 infected in human erythrocyte assessed as inhibition of parasite growth incubated for 66 hrs by [3H]-hypoxanthine incorporation assay based liquid scintillation spectrometric method; assay type: functional, organism-based; conditions: 3D7, Erythrocyte
[6] = system: Plasmodium falciparum; assay: Antimalarial activity against Plasmodium falciparum infected in human […] assessed as inhibition of parasite growth incubated for 30 hrs by [3H]-hypoxanthine incorporation assay based liquid scintillation spectrometric method; assay type: functional, organism-based
[7] = system: Plasmodium falciparum; assay: Antimalarial activity against chloroquine-sensitive Plasmodium falciparum 3D7 infected in human red blood cells assessed as reduction in parasite growth incubated for 72 hrs by SYBR green I-based DNA quantification assay; assay type: functional, organism-based, Red blood cell; conditions: 3D7, Erythrocyte
[8] = system: Plasmodium falciparum; assay: Antimalarial activity against chloroquine-sensitive Plasmodium falciparum NF54 infected in human red blood cells assessed as reduction in parasite growth incubated for 72 hrs by SYBR green I-based DNA quantification assay; assay type: functional, organism-based, Red blood cell; conditions: NF54, Erythrocyte
[9] = system: Plasmodium falciparum; assay: Antimalarial activity against multidrug-resistant Plasmodium falciparum Dd2 infected in human red blood cells assessed as reduction in parasite growth incubated for 72 hrs by SYBR green I-based DNA quantification assay; assay type: functional, organism-based, Red blood cell; conditions: Dd2, Erythrocyte
[10] = system: Plasmodium falciparum; assay: Antimalarial activity against chloroquine resistant Plasmodium falciparum K1 assessed as inhibition of parasite growth incubated for 72 hrs by HRP2-based ELISA assay; assay type: functional, organism-based; conditions: K1, 72 h
[11] = system: Plasmodium falciparum; assay: Antimalarial activity against multidrug-resistant early ring stage Plasmodium falciparum K14 infected in human erythrocytes assessed as inhibition of parasite growth incubated for 48 hrs by [3H]-hypoxanthine incorporation assay; assay type: functional, organism-based; conditions: K14, Erythrocyte
[12] = system: Plasmodium falciparum; assay: Antimalarial activity against drug-sensitive Plasmodium falciparum FCR3 assessed as inhibition of parasite growth; assay type: functional, organism-based
[13] = system: Plasmodium falciparum; assay: Antimalarial activity against drug-resistant Plasmodium falciparum K1 assessed as inhibition of parasite growth; assay type: functional, organism-based
[14] = system: Plasmodium falciparum; assay: Antimalarial activity against chloroquine-sensitive Plasmodium falciparum NF54 infected in human red blood cells assessed as inhibition of parasite growth incubated for 72 hrs by [3H]-hypoxanthine incorporation assay based liquid scintillation counter method; assay type: functional, organism-based, Red blood cell; conditions: NF54, Erythrocyte
[15] = system: Plasmodium falciparum; assay: Antimalarial activity against chloroquine and pyrimethamine resistant Plasmodium falciparum K1 infected in human red blood cells assessed as inhibition of parasite growth incubated for 72 hrs by [3H]-hypoxanthine incorporation assay based liquid scintillation counter method; assay type: functional, organism-based, Red blood cell; conditions: K1, Erythrocyte
[16] = system: Plasmodium falciparum; assay: Antimalarial activity against Plasmodium falciparum Cam3.I^R539T assessed as inhibition of parasite growth measured after 6 hrs; assay type: functional

In the case of `OC(CN1CCC2(CC1)CC(O)c1ccc3ccccc3c1O2)c1ccc(F)c(F)c1` (stereo unspecified), the EC50 [1] is reported as 390 nM.
`O=C1CCCCC12Oc1c(Cl)cccc1C2=O` (stereo unspecified) gave an IC50 [2] of 29.3 µg/mL (≈ 117 µM).
`C[C@@H]1CC[C@]2(C[C@H]3C[C@H]4[C@@H]5CCC67OC6C(=O)CC[C@]7(C)[C@H]5CC[C@]4(C)[C@H]3[C@@H]2C)OC1` (stereo partly specified) showed an IC50 [3] of 8.5 µM and an IC50 [4] of 10.1 µM.
Compound `CCCCCCCCCCCCCC1OC2CC(O)C=CC23C1C(=O)N3Cc1ccccc1` (stereo unspecified) has an IC50 [5] of 860 nM and an IC50 [6] of 5.55 µM.
`COc1cc2c(cc1OC)C1(NCC2)C(=O)Nc2ccc(Cl)cc21` (stereo unspecified) gave an EC50 [7] of 1860 nM, an EC50 [8] of 686 nM and an EC50 [9] of 1730 nM.
In the case of `COc1ccc(COCCC2NCCC23C(=O)Nc2ccccc23)cc1` (stereo unspecified), the IC50 [10] is reported as 10.6 µM.
Compound `O=C1C=Cc2cc(O)c(O)cc2C12C(=O)C=Cc1cc(O)c(O)cc12` has an IC50 [11] of 2320 nM.
With `CNCCc1cc(Br)c(OCCCNC(=O)N(C)CCc2cc(Br)c(OCCCNC(=O)C3=NO[C@]4(CC(Br)=C(OC)C(Br)=CO4)[C@@H]3O)c(Br)c2)c(Br)c1` the IC50 [12] was 0.77 µg/mL (≈ 0.676 µM) and the IC50 [13] was 1.03 µg/mL (≈ 0.904 µM).
For `CCCCCCCCCCCCC[C@@H]1C[C@@H](O)C[C@]2(CCC3(C=CC(=O)C=C3)O2)O1` [ACULEATIN A], the IC50 [14] was 200 nM and the IC50 [15] was 180 nM.
For `C[C@H]1[C@@H](O)O[C@@H]2O[C@@]3(C)CC[C@H]4[C@H](C)CC[C@@H]1[C@@]24OO3` [ARTENIMOL], the IC90 [16] was 2.7 ng/mL (≈ 0.0095 µM).
